Measurements from patent US20240148671A1, “METHODS FOR IMPROVING POULTRY HEALTH” (CORNELL UNIVERSITY, priority 2021, published 2024).
Marks after values point to notes of the source that are not given here.

Assays:
Format in all cases: in vivo, Gallus gallus
hemoglobin (Hb) = assay: Blood hemoglobin (Hb) after intra-amniotic administration
Experimental: (§1) The pure resveratrol and pterostilbene were individually diluted in 18 MΩ H2O. The intra-amniotic administration followed the methodology previously described. On the 17th day of embryonic development, the eggs with viable embryos (n=60) were randomly allocated into 6 groups (n=10) with a similar weight frequency distribution. For the intra-amniotic treatment, 1 mL of solution per egg was injected into the amniotic fluid (via candling) with the aid of a 21-gauge needle. After the procedure, the injection sites were sealed with cellophane tape, and the eggs were distributed into six groups: (1) no injection; (2) 18 MΩ H2O; (3) 5% inulin; (4) 5% resveratrol; (5) 5% pterostilbene; and (6) synergistic: 4.75% resveratrol and 0.25% pterostilbene. […] The eggs were equally distributed in each incubator location to reduce possible allocation bias. Upon hatching (21 days), the hatchlings were euthanized by CO2 exposure, and the blood, liver, heart, pectoral muscle, small intestine and cecum were obtained.
Blood was collected using micro-hematocrit heparin-coated capillary tubes (Fisher Scientific, Waltham, MA, USA). The hemoglobin (Hb) concentration was assessed spectrophotometrically using the QuantiChrom™ Hb Assay (DIHB-250, BioAssay Systems, Hayward, CA, USA) and according to specific instructions.

[1] = Fe and Zn content in the serum and liver samples
Experimental: as §1
The serum (50 μL) and liver (0.5 g) samples were mixed with 3.0 mL of a 60:40 (v/v) solution of nitric acid (HNO3) and perchloric acid (HClO4) and incubated overnight. After this, the samples were heated for 2 hours at 120° C. and added to 0.25 mL of 40 μg/g yttrium (internal standard), and the block temperature was increased to 145° C. for 2 h and then 190° C. for 10 min. At the end of these procedures, the samples were cooled, diluted to a total volume of 20 mL, mixed and transferred into autosampler tubes for analysis (inductively coupled plasma atomic emission spectrometer) (Thermo, Franklin, MA, USA).

[2] = Body weight, cecum weight and cecum:body weight ratio; conditions: intra-amniotic 1 mL/egg on day 17; at hatch (day 21); mean ± SEM, n=8
Experimental: as §1

IL-1β = assay: Gene expression (RT-PCR), IL-1β; conditions: at hatch; b175, b210: compared with the 5% inulin control group; b192: comparator not stated; p<0.05
Experimental: (§2) The pure resveratrol and pterostilbene were individually diluted in 18 MΩ H2O. The intra-amniotic administration followed the methodology previously described. On the 17th day of embryonic development, the eggs with viable embryos (n=60) were randomly allocated into 6 groups (n=10) with a similar weight frequency distribution. For the intra-amniotic treatment, 1 mL of solution per egg was injected into the amniotic fluid (via candling) with the aid of a 21-gauge needle. […]
(§3) The RNA was isolated as described previously (RNeasy Mini Kit, Qiagen Inc., Valencia, CA, USA), and 30 mg of the duodenal tissue or liver tissue (n =8) was used to extract the total RNA. […] Finally, the RNA was eluted in 50 μL of RNase-free water and quantified by absorbance at 260 and 280 nm.
(§4) RT-PCR was conducted as described. […] The cDNA content was assessed by absorbance at 260 and 280 nm, with an extinction coefficient of 33 (single-stranded DNA). Genomic DNA contamination was evaluated via a real-time RT-PCR assay for the reference gene samples [17,18,30]. […]
(§5) The procedures were performed as previously published. […] The optimal MgCl2 concentration achieved, for each reaction, an amplification plot (lowest cycle product, Cp), the uppermost fluorescence intensity and the steepest amplification slope. […]

SI (Sucrose isomaltase) = assay: Gene expression (RT-PCR), SI; conditions: at hatch; b175: compared with the no injection and 5% inulin control groups; b192: comparator not stated; p<0.05
Experimental: as §2, §3, §4, §5

[3] = liver, intra-amniotic 1 mL/egg on day 17, at hatch, mean ± SEM, n=8
[4] = serum, intra-amniotic 1 mL/egg on day 17, at hatch, mean ± SEM, n=8

SI relative expression (SI (Sucrose isomaltase)): down regulated
SMILES: Oc1ccc(C=Cc2cc(O)cc(O)c2)cc1 [5% Resveratrol, Resveratrol]
Hb (g/dL) (hemoglobin (Hb); intra-amniotic 1 mL/egg on day 17, blood at hatch (day 21), mean ± SEM): 9.71 ± 0.53^a g/dL
Hb concentration, comparison between groups (hemoglobin (Hb); synergistic vs the controls and other treatment groups (p<0.05), 5% resveratrol and 5% pterostilbene vs the control groups): no difference
Liver iron concentration vs inulin positive control ([1]; compared with the inulin positive control): similar
Liver Iron (μg/g) [1, 3]: 46.45 ± 4.71 ^a μg/g
Liver Zinc (μg/g) [1, 3]: 16.72 ± 1.58 ^b μg/g
Serum Iron (μg/g) [1, 4]: 2.42 ± 0.23 ^b μg/g
Serum Zinc (μg/g) [1, 4]: 0.97 ± 0.12 ^bc μg/g
Body Weight Average (g) [2]: 47.1 ± 1.4^a g
Cecum Weight Average (g) [2]: 0.6 ± 0.0^a g
Cecum:Body Weight Ratio [2]: 0.013 ± 0.001^a
IL-1β gene expression (IL-1β): downregulated
